{"source": "patent US10966426B2", "about": "“Herbicidal compositions comprising phenylpyrimidines” (BASF SE, priority 2016, dated 2021)", "assay_type_in_all_cases": "in vivo", "key": {"[1]": {"test_system": "Avena fatua", "assay": "greenhouse pre-emergence treatment, AVEFA", "conditions": "Avena fatua, 504 h, 21 DAT, AVEFA, pendimethalin SC 400 g/l solo 125 gai/ha", "from_the_text": "(§1) The culture containers used were plastic pots containing loamy sand with approximately 3.0% of humus as substrate. The seeds of the test plants were sown separately for each species.\n(§2) For the pre-emergence treatment, the active compounds, suspended or emulsified in water, were applied directly after sowing by means of finely distributing nozzles. The containers were irrigated gently to promote germination and growth and subsequently covered with transparent plastic hoods until the plants had rooted. This cover caused uniform germination of the test plants unless this was adversely affected by the active compounds.\n(§3) Depending on the species, the plants were kept at 10-25° C. and 20-35° C., respectively.\n(§4) The test period extended over 2 to 4 weeks. During this time, the plants were tended and their response to the individual treatments was evaluated.\n(§5) Evaluation was carried out using a scale from 0 to 100. 100 means no emergence of the plants, or complete destruction of at least the above-ground parts, and 0 means no damage or normal course of growth. A good herbicidal activity is given at values of at least 70, and very good herbicidal activity is given at values of at least 85.\n(§6) The respective stated components A and B, and if appropriate, C were formulated as a 10% by weight strength emulsion concentrate and, with addition of the amount of solvent system, introduced into the spray liquor used for applying the active compound. In the examples, the solvent used was water.\n(§7) In the examples below, using the method of S. R. Colby (1967) “Calculating synergistic and antagonistic responses of herbicide combinations”, Weeds 15, p. 22ff., the value E, which is expected if the activity of the individual active compounds is only additive, was calculated. E=X+Y−(X·Y/100) where X=effect in percent using herbicide A at an application rate a; • Y=effect in percent using herbicide B at application rate b; • E=expected effect (in %) of herbicide A+herbicide B at application rates a+b."}, "[2]": {"test_system": "Helianthus annuus", "assay": "greenhouse pre-emergence treatment, HELAN", "conditions": "Helianthus annuus, 504 h, 21 DAT, HELAN", "from_the_text": "as §1, §2, §3, §4, §5, §6, §7"}, "[3]": {"test_system": "Bromus sterilis", "assay": "greenhouse pre-emergence treatment, BROST", "conditions": "Bromus sterilis, 504 h, 21 DAT, BROST", "from_the_text": "as §1, §2, §3, §4, §5, §6, §7"}, "[4]": {"test_system": "Brachiaria decumbens", "assay": "greenhouse pre-emergence treatment, BRADC", "conditions": "Urochloa decumbens, 504 h, 21 DAT, BRADC", "from_the_text": "as §1, §2, §3, §4, §5, §6, §7"}, "[5]": {"test_system": "Ambrosia elatior", "assay": "greenhouse pre-emergence treatment, AMBEL", "conditions": "Ambrosia artemisiifolia, 504 h, 21 DAT, AMBEL", "from_the_text": "as §1, §2, §3, §4, §5, §6, §7"}, "[6]": {"test_system": "Alopecurus myosuroides", "assay": "greenhouse post-emergence treatment, ALOMY", "conditions": "Alopecurus myosuroides, 480 h, 20 DAT, ALOMY, pendimethalin SC 400 g/l solo 125 gai/ha", "procedure": "as §1\n(§8) To this end, the test plants were either sown directly, and grown in the same containers, or they were first grown separately as seedlings and transplanted into the test containers a few days prior to treatment.\nas §3, §4, §5\n(§9) In the examples, the solvent used was water.\n(§10) In the examples below, using the method of S. R. Colby (1967) “Calculating synergistic and antagonistic responses of herbicide combinations”, Weeds 15, p. […] E=X+Y−(X·Y/100) where X=effect in percent using herbicide A at an application rate a; • Y=effect in percent using herbicide B at application rate b; • E=expected effect (in %) of herbicide A+herbicide B at application rates a+b."}, "[7]": {"test_system": "Avena fatua", "assay": "greenhouse post-emergence treatment, AVEFA", "conditions": "Avena fatua, sc, 480 h, 20 DAT, AVEFA", "procedure": "as §1, §8, §3, §4, §5, §9, §10"}, "[8]": {"test_system": "Matricaria chamomilla", "assay": "greenhouse post-emergence treatment, MATCH", "conditions": "Matricaria chamomilla, sc, 480 h, 20 DAT, MATCH", "procedure": "as §1\n(§11) For the post-emergence treatment, the test plants were grown to a plant height of from 3 to 15 cm, depending on the plant habit, and only then treated with the active compounds which had been suspended or emulsified in water. To this end, the test plants were either sown directly, and grown in the same containers, or they were first grown separately as seedlings and transplanted into the test containers a few days prior to treatment.\nas §3, §4, §5, §6, §7"}, "[9]": {"test_system": "Lolium multiflorum", "assay": "greenhouse post-emergence treatment, LOLMU", "conditions": "Lolium multiflorum, sc, 480 h, 20 DAT, LOLMU, read-out: % activity", "procedure": "as §1, §8, §3, §4, §5, §9, §10"}, "[10]": {"test_system": "Polygonum convolvulus", "assay": "greenhouse post-emergence treatment, POLCO", "conditions": "Fallopia convolvulus, sc, 480 h, 20 DAT, POLCO", "procedure": "as §1, §11, §3, §4, §5, §6, §7"}, "[11]": {"test_system": "Setaria viridis", "assay": "greenhouse post-emergence treatment, SETVI", "conditions": "Setaria viridis, sc, 480 h, 20 DAT, SETVI, pendimethalin SC 400 g/l solo 250 gai/ha, read-out: % activity", "procedure": "as §1, §8, §3, §4, §5, §9, §10"}, "[12]": {"test_system": "Stellaria media", "assay": "greenhouse post-emergence treatment, STEME", "conditions": "Stellaria media, sc, 480 h, 20 DAT, STEME, pendimethalin SC 400 g/l solo 500 gai/ha", "procedure": "as §1, §11, §3, §4, §5, §6, §7"}, "[13]": {"test_system": "Digitaria sanguinalis", "assay": "greenhouse post-emergence treatment, DIGSA", "conditions": "Digitaria sanguinalis, sc, 480 h, 20 DAT, DIGSA, pendimethalin SC 400 g/l solo 125 gai/ha, read-out: % activity", "procedure": "as §1, §8, §3, §4, §5, §9, §10"}, "[14]": {"test_system": "Bromus sterilis", "assay": "greenhouse post-emergence treatment, BROST", "conditions": "Bromus sterilis, sc, 480 h, 20 DAT, BROST", "procedure": "as §1, §8, §3, §4, §5, §9, §10"}, "[15]": {"test_system": "Apera spica-venti", "assay": "greenhouse post-emergence treatment, APESV", "conditions": "solo, SC 400 g/l, APESV, 250 gai/ha, 20 DAT", "procedure": "as §1, §11, §3, §4, §5, §6, §7"}, "[16]": {"conditions": "pendimethalin SC 400 g/l solo 125 gai/ha, read-out: % activity"}, "[17]": {"conditions": "pendimethalin SC 400 g/l solo 250 gai/ha"}, "[18]": {"conditions": "pendimethalin SC 400 g/l solo 500 gai/ha"}, "[19]": {"conditions": "pendimethalin SC 400 g/l solo 1000 gai/ha"}, "[20]": {"conditions": "pendimethalin SC 400 g/l solo 125 gai/ha"}}}
{"smiles": "CCC(CC)Nc1c([N+](=O)[O-])cc(C)c(C)c1[N+](=O)[O-]", "note": "[pendimethalin]", "values": [{"measurement": "inhibition at 125 g/ha", "setting": "[1]", "result": 0, "unit": "%"}, {"measurement": "inhibition at 100 g/ha", "setting": "[2]; pendimethalin SC 400 g/l solo 100 gai/ha", "result": 10, "unit": "%"}, {"measurement": "inhibition at 125 g/ha", "setting": "[2]; [16]", "result": 0, "unit": "%"}, {"measurement": "inhibition at 250 g/ha", "setting": "[2]; [17]", "result": 0, "unit": "%"}, {"measurement": "inhibition at 500 g/ha", "setting": "[2]; [18]", "result": 10, "unit": "%"}, {"measurement": "inhibition at 250 g/ha", "setting": "[3]; pendimethalin SC 400 g/l solo 250 gai/ha, read-out: % activity", "result": 0, "unit": "%"}, {"measurement": "inhibition at 500 g/ha", "setting": "[3]; [18]", "result": 0, "unit": "%"}, {"measurement": "inhibition at 1000 g/ha", "setting": "[3]; [19]", "result": 10, "unit": "%"}, {"measurement": "% herbicidal activity (weed control, 0-100 scale) at 250 g/ha", "setting": "[4]; [17]", "result": 0, "unit": "%"}, {"measurement": "% herbicidal activity (weed control, 0-100 scale) at 500 g/ha", "setting": "[4]; [18]", "result": 0, "unit": "%"}, {"measurement": "% herbicidal activity (weed control, 0-100 scale) at 1000 g/ha", "setting": "[4]; [19]", "result": 0, "unit": "%"}, {"measurement": "percent weed control (herbicidal activity, 0-100 scale) at 250 g/ha", "setting": "[5]; [17]", "result": 0, "unit": "%"}, {"measurement": "percent weed control (herbicidal activity, 0-100 scale) at 1000 g/ha", "setting": "[5]; [19]", "result": 0, "unit": "%"}, {"measurement": "inhibition at 125 g/ha", "setting": "[6]", "result": 20, "unit": "%"}, {"measurement": "inhibition at 125 g/ha", "setting": "[7]; [16]", "result": 0, "unit": "%"}, {"measurement": "inhibition at 250 g/ha", "setting": "[7]; [17]", "result": 0, "unit": "%"}, {"measurement": "inhibition at 500 g/ha", "setting": "[7]; [18]", "result": 0, "unit": "%"}, {"measurement": "inhibition at 1000 g/ha", "setting": "[7]; [19]", "result": 0, "unit": "%"}, {"measurement": "inhibition at 500 g/ha", "setting": "[8]; [18]", "result": 0, "unit": "%"}, {"measurement": "inhibition at 1000 g/ha", "setting": "[8]; [19]", "result": 0, "unit": "%"}, {"measurement": "inhibition at 125 g/ha", "setting": "[9]; [20]", "result": 10, "unit": "%"}, {"measurement": "inhibition at 250 g/ha", "setting": "[9]; [17]", "result": 20, "unit": "%"}, {"measurement": "inhibition at 125 g/ha", "setting": "[10]; [20]", "result": 40, "unit": "%"}, {"measurement": "inhibition at 500 g/ha", "setting": "[10]; [18]", "result": 60, "unit": "%"}, {"measurement": "inhibition at 250 g/ha", "setting": "[11]", "result": 50, "unit": "%"}, {"measurement": "inhibition at 500 g/ha", "setting": "[12]", "result": 70, "unit": "%"}, {"measurement": "inhibition at 125 g/ha", "setting": "[13]", "result": 45, "unit": "%"}, {"measurement": "inhibition at 125 g/ha", "setting": "[14]; [20]", "result": 0, "unit": "%"}, {"measurement": "inhibition at 250 g/ha", "setting": "[14]; [17]", "result": 0, "unit": "%"}, {"measurement": "inhibition at 500 g/ha", "setting": "[14]; [18]", "result": 0, "unit": "%"}, {"measurement": "inhibition at 1000 g/ha", "setting": "[14]; [19]", "result": 0, "unit": "%"}, {"measurement": "% activity", "setting": "[15]", "result": 0, "unit": "%"}]}
